# Assay results reported in article PMC2809336, “Antidepressant Interactions with the NMDA NR1-1b Subunit” (Journal of Biophysics, 2008).
# “Also recorded” adds a separate entry of the source.
# What was measured:
# Assay type in all cases: binding
# NMDA NR1-1b S1S2 domain [1] = target: T1, NMDA NR1-1b S1S2 domain (Rattus norvegicus, UniProt P35439); assay: Extrinsic ANS fluorescence; conditions: ANS 1 : 1 with 5.29 μM NR1-1b S1S2, excitation 380 nm; drug concentrations as in Figure 4
# T1 construct: (His)8-TSG-LVPRG(thrombin cut site)-S1(394-544)-GT-S2(663-800); (His)8-TSG-LVPRG (His8 tag with thrombin cut site) (N); made in house; host or cells: E. coli Origami B(DE3)
# T1 sequence (P35439 394-544): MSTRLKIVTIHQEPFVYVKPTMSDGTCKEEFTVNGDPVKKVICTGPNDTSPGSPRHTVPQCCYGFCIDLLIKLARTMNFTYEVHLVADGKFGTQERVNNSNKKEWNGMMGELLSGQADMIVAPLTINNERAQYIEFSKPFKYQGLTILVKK
# T1 sequence (P35439 663-800): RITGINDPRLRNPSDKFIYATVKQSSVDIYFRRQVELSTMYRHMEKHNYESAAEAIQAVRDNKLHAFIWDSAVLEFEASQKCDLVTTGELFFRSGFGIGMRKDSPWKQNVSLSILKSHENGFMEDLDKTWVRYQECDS
# Procedure: Extrinsic fluorescence studies were performed in a Cary Ec-lipse fluorometer at 25°C. All emission scans were acquired from 400 to 600 nm after excitation at 380 nm with 20 nm slit widths for emission and excitation in a 10 mm-path-length cell. Before data acquisition, samples were incubated for thirty seconds in the sample holder at 25°C. Blanks were collected both for the antidepressants and the NR1-1b S1S2 domain. Three emission spectra of identicallyprepared samples were averaged for each plot. 8-Anilino-1-naphthalenesulfonic acid (ANS, TCI America), in a 1 : 1 molar ratio, was added to 5.29 μM of the NR1-1b S1S2 domain premixed with antidepressant (at final concentrations as above for intrinsic quenching studies in addition to the SSRIs fluoxetine (8.62 μM) and fluvoxamine (2.81 mM) and the SNRI venlafaxine (29.07 μM)). As with all intrinsic assays, total methanol concentration was kept at 1.8%. Plots of intensity versus wavelength were constructed from averaged emission spectra.
# NMDA NR1-1b S1S2 domain [2] = target: T1, NMDA NR1-1b S1S2 domain; assay: Intrinsic tryptophan fluorescence quenching and λ max of emission; conditions: for Binding to NR1-1b S1S2 by intrinsic tryptophan fluorescence: desipramine, trimipramine, imipramine 137 μM, maprotiline 3.18 mM, nortriptyline 2.08 mM, paroxetine 3.75 mM, sertraline 1.88 mM, fluvoxamine 2.81 mM; for λ max of the NR1-1b drug bound complex: excitation 290 nm, 25°C, apo 326.24 nm, drug at final quenching concentration; for Binding to NR1-1b S1S2 in intrinsic and extrinsic fluorescence assays: concentrations as high as 5.21 mM
# Procedure: (§1) Intrinsic fluorescence studies were performed in a Cary Eclipse fluorometer at 25°C. All emission scans were acquired from 300 to 400 nm upon excitation at 290 nm, with 10 nm excitation and emission slit widths in a 10 mm-path-length cell. Excitation was performed at 290 nm to minimize interference from both tyrosine residues in the NMDA NR1-1b S1S2 domain as well as the aromatic antidepressants being studied. Before data acquisition, samples were incubated for thirty seconds in the sample holder at 25°C. […] Thus, data was reported without a buffer subtraction.
# All antidepressants were solubilized in 100% methanol to the highest attainable concentrations. To account for any effects methanol had on fluorescence intensity, protein spectra with methanol were collected, allowing direct comparison between samples with and without antidepressant. Each data set consisted of at least three independent emission spectra of identically prepared samples. The data is reported with error determined at the 95% confidence level.
# The fluorescence intensity of the NR1-1b S1S2 domain was determined in the presence and absence of eachantidepressant with the appropriate blank subtraction. […] For all samples, the final concentration of methanol was kept at 1.8%.
# NMDA NR1-1b S1S2 domain [3] = target: T1, NMDA NR1-1b S1S2 domain; assay: Stern-Volmer analysis, acrylamide quenching of tryptophan fluorescence; conditions: acrylamide 16.3 to 113.9 mM, 5.29 μM NR1-1b S1S2 premixed with antidepressant; apo 1.61
# Text: Plots of (F 0/F) −1 versus acrylamide concentration were constructed.
# NMDA NR1-1b S1S2 domain [4] = target: T1, NMDA NR1-1b S1S2 domain; assay: Kd determination by intrinsic tryptophan fluorescence (double reciprocal, Benesi-Hildebrand plot); conditions: 5.29 μM NR1-1b S1S2, buffer 3 pH 6.5, 25°C, error at 95% confidence level
# Procedure: as §1
# Protein samples were at a final concentration of 5.29 μM in buffer 3 (10 mM MES, pH 6.5, 25 mM NaCl, 1 mM glycine). All antidepressants were solubilized in 100% methanol to the highest attainable concentrations. To account for any effects methanol had on fluorescence intensity, protein spectra with methanol were collected, allowing direct comparison between samples with and without antidepressant. Each data set consisted of at least three independent emission spectra of identically prepared samples. The data is reported with error determined at the 95% confidence level.
# A double reciprocal plot was used to determine Kd, which derives from the Benesi-Hildebrand relationship, provided there is a 1 : 1 binding stoichiometry. […] When 1/ΔF is plotted against 1/[L], a linear relationship exists. The intercept on the x-axis is − K d.. […]
SMILES,ANS emission spectrum of the NR1-1b S1S2 complex versus ANS bound to apo S1S2 (binding) (NMDA NR1-1b S1S2 domain [1]),Binding to NR1-1b S1S2 by intrinsic tryptophan fluorescence (NMDA NR1-1b S1S2 domain [2]),K sv (NMDA NR1-1b S1S2 domain [3]) [M⁻¹],λ max of the NR1-1b drug bound complex (NMDA NR1-1b S1S2 domain [2]) [nm],λ max of the NR1-1b drug bound complex (NMDA NR1-1b S1S2 domain [2]; listed as Maprotiline) [nm],Change of tryptophan fluorescence emission upon binding (NMDA NR1-1b S1S2 domain [2]; intensity versus apo NR1-1b S1S2),Binding to NR1-1b S1S2 in intrinsic and extrinsic fluorescence assays (NMDA NR1-1b S1S2 domain [2]),Binding to NR1-1b S1S2 in intrinsic and extrinsic fluorescence assays (NMDA NR1-1b S1S2 domain [2]; listed as Citalopram),Kd (NMDA NR1-1b S1S2 domain [4]) [mM]
CNCCC(Oc1ccc(C(F)(F)F)cc1)c1ccccc1 (centres unmarked) [fluoxetine],confirmed the binding,neither of which showed binding,,,,,,,
COc1ccc(C(CN(C)C)C2(O)CCCCC2)cc1 (centres unmarked) [venlafaxine],confirmed the binding,did not; also recorded: neither of which showed binding,,,,,,,
CNCCCC12CCC(c3ccccc31)c1ccccc12 [maprotiline],significantly different,binding,5.92,322.04 ± 1.83,322.04,"increases, rather than quenches",,,
Fc1ccc([C@@H]2CCNC[C@H]2COc2ccc3c(c2)OCO3)cc1 [paroxetine],significantly different,binding,3.06,328.3,,,,,
CN(C)CCCC1(c2ccc(F)cc2)OCc2cc(C#N)ccc21 (centres unmarked) [citalopram],,did not,,,,,no binding,no evidence of binding,
COCCCC/C(=N\OCCN)c1ccc(C(F)(F)F)cc1 [fluvoxamine],significantly different,binding,3.77,328.57,,,,,
CC(CN(C)C)CN1c2ccccc2CCc2ccccc21 (centres unmarked) [trimipramine],significantly different,binding,3.02,327.27,,,,,1.09 ± 0.24
CNCCCN1c2ccccc2CCc2ccccc21 [desipramine],,binding,2.67,326.77,,,,,
